For data set [1], the target named is Module 5 A-domain protein (Brevibacillus texasporus, UniProt Q2VQ15). Description: ATP-PPi exchange assay, Module 5 A-domain. It counts as biochemical. The conditions noted are these: 0.5 mM amino acid, 0.2 μM protein, 37° C., 15 min. How it is done:
(§1) Cloning, overexpression, and purification of His10-tagged BT A-domain proteins. DNA fragments encoding the A-domains of the BT NRPS Modules 8, 5, 7, 4 and 2 (Bt8A, Bt5A, Bt7A, Bt4A and Bt2A) were PCR-amplified and the PCR products were inserted into the His10-tag recombinant protein expression vector pET16b (Novagen). The A-domain borders were determined as defined by (Konz, et al., 1999). The expression constructs were transformed into the E.coli BL21 -AI strain (Invitrogen). Transformants were grown in L-broth at 37° C. to an A600 of 0.6 and then induced with 1 mM IPTG (isopropyl-β-D-thiogalactopyranoside) plus 0.2% L-arabinose. The cells were allowed to grow for two additional hours at 30° C. before being harvested. Purification of the His10-tag recombinant proteins was achieved using the TALON metal affinity resins (BD Biosciences) under conditions recommended in the manual with modifications. Briefly, the E. coli cells were broken by sonication. Cell lysates were cleared by centrifugation at 25,000× g for one hour. […] Eluted proteins were dialyzed against a buffer (50 mM HEPES, pH 8.0, 100 mM sodium chloride, 10 mM magnesium chloride, and 1 mM EDTA) and then analyzed with SDS PAGE plus Coomassie Blue staining. […] Concentrations of the purified proteins were determined by using the calculated molar extinction coefficient for the A280.
(§2) ATP-PPi exchange assay. […] The charcoal/water suspension was added to a scintillation vial containing 5.0 ml of scintillation fluid, and the bound radioactivity was determined by liquid scintillation counting. […]
(§3) Since a purified recombinant A-domain of an NRPS module can selectively and efficiently activate the cognate amino acid substrate of the NRPS module in an ATP-PPi exchange assay (Konz, et al., 1999; Mootz & Marahiel, 1997), ATP-PPi exchange assays have been used to experimentally establish NRPS module specificities and novel NRPS codons. […] A-domain specificities were determined in ATP-PPi exchange and aa Km assays (see Methods and Materials), and the results are shown in FIG. 5. […]

The target in data set [2] is Module 4 A-domain protein (Brevibacillus texasporus, UniProt Q2VQ15). As to the kind of experiment: ATP-PPi exchange assay, Module 4 A-domain. To be noted: 0.5 mM amino acid, 0.2 μM protein, 37° C., 15 min. Format: biochemical. How it is done:
as §1, §2, §3

The target of data set [3] is Module 8 A-domain protein (Brevibacillus texasporus, UniProt Q2VQ14). As to the kind of experiment: ATP-PPi exchange assay, Module 8 A-domain. It counts as biochemical. The conditions noted are these: 0.5 mM amino acid, 2 μM protein, 37° C., 15 min. How it is done:
as §1, §2, §3

Data set [4] relates to Module 2 A-domain protein. Description: ATP-PPi exchange assay, Module 2 A-domain. Format: biochemical, Brevibacillus texasporus. The conditions noted are these: 0.5 mM amino acid, 37° C., 15 min. How it is done: Cloning, overexpression, and purification of His10-tagged BT A-domain proteins. DNA fragments encoding the A-domains of the BT NRPS Modules 8, 5, 7, 4 and 2 (Bt8A, Bt5A, Bt7A, Bt4A and Bt2A) were PCR-amplified and the PCR products were inserted into the His10-tag recombinant protein expression vector pET16b (Novagen). The A-domain borders were determined as defined by (Konz, et al., 1999). The expression constructs were transformed into the E.coli BL21 -AI strain (Invitrogen). Transformants were grown in L-broth at 37° C. to an A600 of 0.6 and then induced with 1 mM IPTG (isopropyl-β-D-thiogalactopyranoside) plus 0.2% L-arabinose. The cells were allowed to grow for two additional hours at 30° C. before being harvested. Purification of the His10-tag recombinant proteins was achieved using the TALON metal affinity resins (BD Biosciences) under conditions recommended in the manual with modifications. Briefly, the E. coli cells were broken by sonication. Cell lysates were cleared by centrifugation at 25,000× g for one hour. His-tagged recombinant proteins were then incubated with the TALON resin, washed, and eluted with 500 mM imidazole. Eluted proteins were dialyzed against a buffer (50 mM HEPES, pH 8.0, 100 mM sodium chloride, 10 mM magnesium chloride, and 1 mM EDTA) and then analyzed with SDS PAGE plus Coomassie Blue staining. […] Concentrations of the purified proteins were determined by using the calculated molar extinction coefficient for the A280.
ATP-PPi exchange assay. ATP-PPi exchange assays were performed to determine the substrate specificity of an A-domain. ATP-PPi exchanges were assayed as previously described (Stachelhaus, et al., 1998) with minor modifications. The assay mixture contained 50 mM HEPES (pH 8.0), 100 mM NaCl, 10 mM MgCl2, 2 mM ATP, 0.5 mM amino acid, 0.05 mM PPi, 0.15 μCi tetrasodium [^32P]pyrophosphate. Exchange was initiated by addition of purified recombinant A-domain proteins to a total volume of 0.1 ml. The protein concentrations were 0.2 μM for Module 4 and Module 5 A-domains while 2 μM for Module 7 and Module 8 A-domains. After incubation at 37° C. for 15 min, the reaction was stopped by addition of 0.5 ml of Termination Mix (100 mM tetrasodium pyrophosphate, 3.5% HClO4, and 1.6% [w/v] activated charcoal). The charcoal was pelleted by centrifugation, washed first with 40 mM pyrophosphate plus 1.4% perchloric acid and then with water, and was re-suspended in 0.5 ml of water. The charcoal/water suspension was added to a scintillation vial containing 5.0 ml of scintillation fluid, and the bound radioactivity was determined by liquid scintillation counting. The apparent Km values were determined with substrate concentrations ranging from 0.1 to 10 mM.
Since a purified recombinant A-domain of an NRPS module can selectively and efficiently activate the cognate amino acid substrate of the NRPS module in an ATP-PPi exchange assay (Konz, et al., 1999; Mootz & Marahiel, 1997), ATP-PPi exchange assays have been used to experimentally establish NRPS module specificities and novel NRPS codons. Recombinant A-domains of Modules 8, 5, 7 ,4 and 2 of the BT NRPS were produced and purified as described in Methods and Materials. Almost completely soluble recombinant A-domain proteins were obtained. A-domain specificities were determined in ATP-PPi exchange and aa Km assays (see Methods and Materials), and the results are shown in FIG. 5. […]

Another data set has as its system straight run broilers. As to the kind of experiment: Growth promoting Studies 3-1 and 3-2, pelleted starter feed, batteries. To be noted: BT1583 12 ppm, BMD 50 ppm, COB 90 ppm, alone or combined. It counts as in vivo, chicken. The source says:
Eight (8) study repetitions per treatment were used, again with 4 birds per pen.

Substrate in data set [5]: CC(C)[C@H](N)C(=O)O
As to the kind of experiment: ATP-PPi exchange assay, Module 8 A-domain. Format: biochemical, Brevibacillus texasporus. To be noted: other: substrate 0.1 to 10 mM; pH 8.0. How it is done: as §1, with “harvested.” for “harvested. Purification of the His10-tag recombinant proteins was achieved using the TALON metal affinity resins (BD Biosciences) under conditions recommended in the manual with modifications. Briefly, the E. coli cells were broken by sonication. Cell lysates were cleared by centrifugation at 25,000× g for one hour.”
as §2

Substrate in data set [6]: CC[C@H](C)[C@H](N)C(=O)O
As to the kind of experiment: ATP-PPi exchange assay, Module 4 A-domain. Format: biochemical, Brevibacillus texasporus. The conditions noted are these: other: substrate 0.1 to 10 mM; pH 8.0. How it is done:
as §1, with “harvested.” for “harvested. Purification of the His10-tag recombinant proteins was achieved using the TALON metal affinity resins (BD Biosciences) under conditions recommended in the manual with modifications. Briefly, the E. coli cells were broken by sonication. Cell lysates were cleared by centrifugation at 25,000× g for one hour.”
as §2

Substrate in data set [7]: CC[C@H](C)[C@H](N)C(=O)O
As to the kind of experiment: ATP-PPi exchange assay, Module 5 A-domain. Format: biochemical, Brevibacillus texasporus. To be noted: other: substrate 0.1 to 10 mM; pH 8.0. How it is done:
as §1, with “harvested.” for “harvested. Purification of the His10-tag recombinant proteins was achieved using the TALON metal affinity resins (BD Biosciences) under conditions recommended in the manual with modifications. Briefly, the E. coli cells were broken by sonication. Cell lysates were cleared by centrifugation at 25,000× g for one hour.”
as §2

Substrate in data set [8]: CC(C)[C@H](N)C(=O)O
As to the kind of experiment: ATP-PPi exchange assay, Module 5 A-domain. It counts as biochemical, Brevibacillus texasporus. To be noted: other: substrate 0.1 to 10 mM; pH 8.0. How it is done: as §1, with “harvested.” for “harvested. Purification of the His10-tag recombinant proteins was achieved using the TALON metal affinity resins (BD Biosciences) under conditions recommended in the manual with modifications. Briefly, the E. coli cells were broken by sonication. Cell lysates were cleared by centrifugation at 25,000× g for one hour.”
as §2

With `CC(C)[C@H](N)C(=O)O` [L-Val], the “relative substrate activation (highest activity defined as 100%)” value in [1] is on record as 100%; in data set [2], 9%; in data set [3], 100%; in [4] it was 67%.
On to `CC[C@H](C)[C@H](N)C(=O)O` [L-Ile], for which the “relative substrate activation (highest activity defined as 100%)” value is on record as 23% in data set [1], 100% in data set [2], 4% in data set [3] and 19% in data set [4].
With `CC[C@@]1([C@@H]2O[C@@H]([C@H]3O[C@@](O)(CO)[C@H](C)C[C@@H]3C)C[C@@H]2C)CC[C@H]([C@]2(C)CC[C@]3(C[C@H](O)[C@@H](C)[C@@H]([C@@H](C)[C@@H](OC)[C@H](C)C(=O)O)O3)O2)O1` [Monensin, reference compound], the “20-day cumulative weight gain, Mean” value in the data set on straight run broilers (Table 18) is recorded as 792.8438. The “21-day cumulative weight gain, estimated marginal Mean” value in the data set on straight run broilers (Table 20) was 792.844. Also, in the data set with straight run broilers (Table 21), the “21-day cumulative weight gain, Duncan homogeneous subsets” value came out at 792.8438. In addition, the “20-day cumulative feed conversion rate, Duncan homogeneous subsets” value with straight run broilers (Table 25) was determined as 1.3712.

B1: Module 8 A-domain protein (Brevibacillus texasporus) (protein)
chain: ALVFGEAQLTYRELNEKANQMARGLRKQGVLPDQVIGLLTDRSLEMIIAILAIFKAGGAYMPIDPSYPSERIQYMLADSRTHLLLVQKAEMIPANYQGEVLLLTEDSWMDENTDNLDLVNQAQDLAYVMYTSGSTGKPKGNLTTHQNIVKTIMNNGYMEITPNDRLLQLSNYAFDGSTFDIYSALLNGASLILVPTHVLMNPTDLASVIQDQHITVSFMTTSLFNTLVELDVTSLKHMRKVVFGGEKASIKHVEKALDYLGAGRLVNGYGPTETTVFATTYTVDHTIKETGIMPIGRPLNNTKVFILGADNQLQPIGALGELCVSGEGLARGYLNLPELTADRFVENPFMRGERMYRTGDLARWLPDGSIEYVGRIDEQVKIRGHRIELGEIEARLLEHPAISETVLLAKQDEQGHSFLCAYLVTNGAWSVAELRKHIKETLPDSMVPSYFIEIDKMPLTSNGKADKRALPEPDVQQVSSY
By Km is commonly meant the substrate concentration at which the rate is half of its maximum. Take B1: the Km in data set [5] turned out to be 2750 µM.

B2: Module 4 A-domain protein (Brevibacillus texasporus) (protein)
chain: QLFEEQVDKNPNQIALVFKEEKLTYGEVNAKANQLAYVLRKQGVQPNDVIGIITERSPEMIIGILAIFKAGGAYMPIDPSYPAERIQYMLQDNQTKLLLVQKQEMIPANYQGEVLFLTQESWMHEETSNPAHITQAQALAYVMYTSGSTGEPKGILTTHQNIMKTVIHNGYVEITPGDCLSQLSNYAFDGSTFEIYGALLHGATLLLVTKEAVLNMNELARLIKKEQVTVSFMTTALFNTLVDLDITCFQSIRKVLFGGELASVKHVLKALDYLGEHRVINVYGPTETTVYATYYSVDHSMLTRASVPIGRPINNTKAYIVNTDGQPQPIGVVGELCIGGEGVACGYLNRPELTKKHFVDNPFVLGERMYCTGDLARFLPDGNIEYIGRMDEQVKIRGHRIELGEIEKVLLQHPAISETVLLAKRDEQGHSYLCAYIVGQVFWTVTELRQHLMESLPEYMVPSYFIEIEKLPLTANGKVDKRALPEPDRKMGSAYV
For B2, in [6], the Km stood at 500 µM.

B3: Module 5 A-domain protein (Brevibacillus texasporus) (protein)
chain: DKTIHQQFEQKVEENPDQIALLFKDKEITYGQLNAKANQFARVLRKHGVQPDQVVGLITDRSIEMMIGILAILKAGGAYLPIDPSYPLERITYMLEDSQAQLLIVQEAAMIPEGYQGKVLLLAEECWMQEEASNLELINDAQDLAYVMYTSGSTGKPKGNLTTHQNILRTIINNGFIEIVPADRLLQLSNYAFDGSTFDIYSALLNGATLVLVPKEVMLNPMELARIVREQDITVSFMTTSLFHTLVELDVTSMKSIRKVVFGGEKASYKHVEKALDYLGEGRLVNGYGPTETTVFATTYTVDSSIKETGIVPIGRPLNNTSVYILNENNQPQPIGVPGELCVGGAGIARGYLNRPELTAERFVDNPFLVGDRMYRTGDMARFLPDGNIEYIGRMDEQVKIRGHRIELGEIEKSLLEYPAISEAVLVAKRDEQGHSYLCAYVVSTDQWTVAKVRQHILEALPEYMVPSYFVELEKLPLTSNGKVDKRALPEPDRVITNEYV
Consider B3, for which the Km in data set [7] was found to be 2780 µM; in data set [8] it was 1110 µM.
